According to patent publication US12643867B2, “Compositions and uses thereof” (University of Virginia Patent Foundation, priority 2017, dated 2026):

Target: T1, DGKA (Diacylglycerol kinase alpha) (Rattus norvegicus, UniProt P51556)
T1 construct: expressed in transfected cells; host or cells: HEK293T (SILAC HEK293T for LC-MS)
Test: SILAC LC-MS ATP acyl phosphate probe competition, recombinant DGK-HEK293T lysates
Format: binding
Details: ATP 1 mM, Ketanserin, Ritanserin 100 μM, RF001 1 mM; for SILAC ratio, DGKA C1 probe-modified peptide: site C1 (K237); for SILAC ratio, DGKA DAGKa probe-modified peptide: site DAGKa (K539); for SILAC ratio, DGKA DAGKc probe-modified peptide: site DAGKc (K377)
Experimental: All other vectors were gifted to Dr. Kevin Lynch (University of Virginia, School of Medicine) by Dr. Kaoru Goto (Yamagata University, School of Medicine) and Dr. Fumio Sakane (Chiba University) and were kindly shared with us: pcDNA3-FLAG-DGKA (rat), pCMV-Tag2B-FLAG-DGKQ (human), pcDNA3-DGKE-3×Flag (human), and pCMV-SPORT6-HA-DGKZ (human). HEK293T cells were plated at a concentration of 400,000 cells in complete DMEM and grown to 50-60% confluency. A polyethyleneimine (PEI) stock solution was prepared (1 mg/mL, pH 7.4) and filter sterilized. Serum-free DMEM (600 μL) was mixed gently with 2.6 μg DNA and 20 μL of sterile PEI (1 mg/mL, pH 7.4) in a sterile microfuge tube. Mixtures were incubated for 30 min at 25° C. The mixture was then added drop-wise to each 10 cm^2 plate, rocked back and forth to mix, and placed back in the incubator. Cell pellets were harvested after two full days of growth, snap-frozen in liquid N2, and stored at −80° C. until use. Recombinant proteins were produced by transient transfection in SILAC HEK293T cells using the procedure described above, except that cells were plated at a concentration of 1×10^6 cells per 10 cm^2 plate and grown to ˜70% confluency prior to introducing transfection mixture.
Proteomes were diluted to 2 mg/ml in kinase buffer. The light and heavy proteomes (0.5 mg, 250 μL total reaction volume) were pre-treated with vehicle or compound, respectively (5 μL, DMSO (light) or 50× stock in DMSO (heavy)), mixed gently, and incubated at 25° C. for 30 min. […] After incubation, matched light and heavy proteomes were transferred and mixed in a 1:1 ratio in a two-dram vial containing 4:1:3 MeOH/CHCl3/H2O (2 mL MeOH, 500 AL CHCl3, 1.5 mL H2O) for extraction of proteins to remove excess probe, quickly vortexed, and centrifuged at 1,400×g for 3 min to pellet protein. Organic and aqueous layers were removed using a Pasteur pipette, and the protein pellet was transferred to a screw-top tube in 600 μL MeOH. A second extraction was performed by adding CHCl3 (150 μL) and H2O (600 μL) to each sample, vortexed, and centrifuged at 1,400×g for 3 min to pellet protein. Organic and aqueous layers were removed by pipetting. MeOH added to pellet (600 μL) and pellets were re-suspended by sonication (3×1 sec pulse, 20% amplitude) for a final extraction. Samples were then centrifuged at 17,000×g for 5 min to pellet protein and MeOH was removed by pipetting. […] To desalt the samples, each was transferred to a two-dram glass vial, and to the vial 4:1:2 MeOH/CHCl3/H2O (2 mL MeOH, 500 AL CHCl3, 1 mL H2O) was added. The vials were vortexed quickly, spun at 1.400×g for 3 min to pellet protein, and aqueous and organic layers were removed using a Pasteur pipette. The resulting protein pellet was transferred to a screw-top tube in 600 μL MeOH, and then CHCl3 (150 μL) and HO (600 μL) were added to extract protein a second time. The samples were vortexed quickly, centrifuged at 1,400×g to pellet protein, and the aqueous and organic layers were removed by pipetting. Resulting protein pellet was suspended in MeOH (600 μL) via sonication (3×1 sec pulse, 20% amplitude), centrifuged at 17,000×g for 5 min to pellet protein, and MeOH removed by pipetting. Protein pellets were then re-suspended in 25 mM ammonium bicarbonate (500 μL) and digested with 7.5 μg Trypsin/Lys-C(Promega, 15 μL, 0.5 μg/μL) for 3 h at 37° C. Avidin-agarose beads (Thermo Scientific Pierce, 100 AL aliquot per sample) were washed three times by adding 10 mL DPBS, centrifuged at 1,400×g for 1 min, and decanting. This wash step was repeated for a total of 3 times. Digested protein samples were mixed with washed avidin beads (100 μL) and brought to a volume of 5.5 mL with DPBS in a 15 mL conical and rotated for 1 h to enrich samples for the covalent desthiobiotin modification. The beads were washed with 25 mM ammonium bicarbonate (3× with 10 mL, centrifuge at 1,400×g for 3 min, decant) and then H2O (3× with 10 mL, centrifuge at 1,400×g for 3 min, decant).

T1 sequence (P51556 whole entry): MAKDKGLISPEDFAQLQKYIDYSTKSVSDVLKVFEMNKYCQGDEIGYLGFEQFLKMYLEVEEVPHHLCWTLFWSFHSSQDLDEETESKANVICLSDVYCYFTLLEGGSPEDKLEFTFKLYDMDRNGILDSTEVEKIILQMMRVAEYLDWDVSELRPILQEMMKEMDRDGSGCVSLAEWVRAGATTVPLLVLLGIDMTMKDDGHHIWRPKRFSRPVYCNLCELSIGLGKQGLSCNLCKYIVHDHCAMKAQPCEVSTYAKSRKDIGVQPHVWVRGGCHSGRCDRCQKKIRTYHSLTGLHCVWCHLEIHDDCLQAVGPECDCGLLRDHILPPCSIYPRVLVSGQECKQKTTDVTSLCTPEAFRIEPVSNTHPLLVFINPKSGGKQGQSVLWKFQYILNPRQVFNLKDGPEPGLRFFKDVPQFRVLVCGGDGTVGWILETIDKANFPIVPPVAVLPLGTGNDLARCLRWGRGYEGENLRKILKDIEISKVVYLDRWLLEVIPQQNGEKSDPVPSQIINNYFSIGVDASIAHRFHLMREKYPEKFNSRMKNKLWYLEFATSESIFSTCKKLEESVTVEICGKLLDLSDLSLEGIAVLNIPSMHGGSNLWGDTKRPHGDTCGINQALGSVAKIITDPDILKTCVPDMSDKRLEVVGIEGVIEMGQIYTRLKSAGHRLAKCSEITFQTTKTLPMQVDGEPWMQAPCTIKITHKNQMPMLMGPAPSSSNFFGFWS

SILAC ratio, DGKA C1 probe-modified peptide	SILAC ratio, DGKA DAGKa probe-modified peptide	SILAC ratio, DGKA DAGKc probe-modified peptide	Compound
12.6	9.1	1.7	Fc1ccc(C(=C2CCNCC2)c2ccc(F)cc2)cc1 [RF001, 4-(Bis(4-fluorophenyl)methylene) piperidine]
1.4	1.3	1.2	O=C(c1ccc(F)cc1)C1CCN(CCn2c(=O)[nH]c3ccccc3c2=O)CC1 [Ketanserin]

Compound	SILAC ratio, DGKA C1 probe-modified peptide	SILAC ratio, DGKA DAGKa probe-modified peptide	SILAC ratio, DGKA DAGKc probe-modified peptide
Cc1nc2sccn2c(=O)c1CCN1CCC(=C(c2ccc(F)cc2)c2ccc(F)cc2)CC1 [Ritanserin]	7.0	7.0	2.0
